Measurements: patent US12311049B2, “Formulation of ear drops and methods for delivery thereof for treating upper respiratory infections” (priority 2023, dated 2025)

Columns and labels:
Type in all cases: cell-based
SARS-CoV-2 BA.1 = system: SARS-CoV-2 BA.1
SARS-CoV-2 BA.2 = system: SARS-CoV-2 BA.2
SARS-CoV-2 BA.5 = system: SARS-CoV-2 BA.5
SARS-CoV-2 XBB = system: SARS-CoV-2 XBB
SARS-CoV-2 XBB1.5 = system: SARS-CoV-2 XBB1.5
[1] = system: original WA1 viral strain of SARS-CoV-2; experiment: in vitro infectivity of SARS-CoV-2 to epithelial cells expressing ACE-2 and TMPRSS-2 (virus-NP protein in culture media); conditions: MOI 0.01

## hemin
SARS-CoV-2 BA.1
  dose response of inhibition of SARS-CoV-2 BA.1 (virus-NP protein levels): dose-dependent inhibition
  protection of cells against SARS-CoV-2 BA.1 infection: protected cells
SARS-CoV-2 BA.2
  suppression of replication of SARS-CoV-2 BA.2: significantly suppressed replication
SARS-CoV-2 BA.5
  suppression of replication of SARS-CoV-2 BA.5: significantly suppressed replication
SARS-CoV-2 XBB
  suppression of replication of SARS-CoV-2 XBB: significantly suppressed replication
SARS-CoV-2 XBB1.5
  suppression of replication of SARS-CoV-2 XBB1.5: significantly suppressed replication
[1]
  suppression of SARS-CoV-2 infection, original WA1 viral strain: markedly suppressed
